{"source": "patent US20230073777A1", "about": "“CYCLIC-AMP RESPONSE ELEMENT BINDING PROTEIN (CBP) AND/OR ADENOVIRAL E1A BINDING PROTEIN OF 300 KDA (P300) DEGRADATION COMPOUNDS AND METHODS OF USE” (CULLGEN (SHANGHAI), INC., priority 2019, published 2023)", "key": {"P300": {"target": "P300 (Homo sapiens, UniProt Q09472)", "sequence (Q09472 whole entry)": "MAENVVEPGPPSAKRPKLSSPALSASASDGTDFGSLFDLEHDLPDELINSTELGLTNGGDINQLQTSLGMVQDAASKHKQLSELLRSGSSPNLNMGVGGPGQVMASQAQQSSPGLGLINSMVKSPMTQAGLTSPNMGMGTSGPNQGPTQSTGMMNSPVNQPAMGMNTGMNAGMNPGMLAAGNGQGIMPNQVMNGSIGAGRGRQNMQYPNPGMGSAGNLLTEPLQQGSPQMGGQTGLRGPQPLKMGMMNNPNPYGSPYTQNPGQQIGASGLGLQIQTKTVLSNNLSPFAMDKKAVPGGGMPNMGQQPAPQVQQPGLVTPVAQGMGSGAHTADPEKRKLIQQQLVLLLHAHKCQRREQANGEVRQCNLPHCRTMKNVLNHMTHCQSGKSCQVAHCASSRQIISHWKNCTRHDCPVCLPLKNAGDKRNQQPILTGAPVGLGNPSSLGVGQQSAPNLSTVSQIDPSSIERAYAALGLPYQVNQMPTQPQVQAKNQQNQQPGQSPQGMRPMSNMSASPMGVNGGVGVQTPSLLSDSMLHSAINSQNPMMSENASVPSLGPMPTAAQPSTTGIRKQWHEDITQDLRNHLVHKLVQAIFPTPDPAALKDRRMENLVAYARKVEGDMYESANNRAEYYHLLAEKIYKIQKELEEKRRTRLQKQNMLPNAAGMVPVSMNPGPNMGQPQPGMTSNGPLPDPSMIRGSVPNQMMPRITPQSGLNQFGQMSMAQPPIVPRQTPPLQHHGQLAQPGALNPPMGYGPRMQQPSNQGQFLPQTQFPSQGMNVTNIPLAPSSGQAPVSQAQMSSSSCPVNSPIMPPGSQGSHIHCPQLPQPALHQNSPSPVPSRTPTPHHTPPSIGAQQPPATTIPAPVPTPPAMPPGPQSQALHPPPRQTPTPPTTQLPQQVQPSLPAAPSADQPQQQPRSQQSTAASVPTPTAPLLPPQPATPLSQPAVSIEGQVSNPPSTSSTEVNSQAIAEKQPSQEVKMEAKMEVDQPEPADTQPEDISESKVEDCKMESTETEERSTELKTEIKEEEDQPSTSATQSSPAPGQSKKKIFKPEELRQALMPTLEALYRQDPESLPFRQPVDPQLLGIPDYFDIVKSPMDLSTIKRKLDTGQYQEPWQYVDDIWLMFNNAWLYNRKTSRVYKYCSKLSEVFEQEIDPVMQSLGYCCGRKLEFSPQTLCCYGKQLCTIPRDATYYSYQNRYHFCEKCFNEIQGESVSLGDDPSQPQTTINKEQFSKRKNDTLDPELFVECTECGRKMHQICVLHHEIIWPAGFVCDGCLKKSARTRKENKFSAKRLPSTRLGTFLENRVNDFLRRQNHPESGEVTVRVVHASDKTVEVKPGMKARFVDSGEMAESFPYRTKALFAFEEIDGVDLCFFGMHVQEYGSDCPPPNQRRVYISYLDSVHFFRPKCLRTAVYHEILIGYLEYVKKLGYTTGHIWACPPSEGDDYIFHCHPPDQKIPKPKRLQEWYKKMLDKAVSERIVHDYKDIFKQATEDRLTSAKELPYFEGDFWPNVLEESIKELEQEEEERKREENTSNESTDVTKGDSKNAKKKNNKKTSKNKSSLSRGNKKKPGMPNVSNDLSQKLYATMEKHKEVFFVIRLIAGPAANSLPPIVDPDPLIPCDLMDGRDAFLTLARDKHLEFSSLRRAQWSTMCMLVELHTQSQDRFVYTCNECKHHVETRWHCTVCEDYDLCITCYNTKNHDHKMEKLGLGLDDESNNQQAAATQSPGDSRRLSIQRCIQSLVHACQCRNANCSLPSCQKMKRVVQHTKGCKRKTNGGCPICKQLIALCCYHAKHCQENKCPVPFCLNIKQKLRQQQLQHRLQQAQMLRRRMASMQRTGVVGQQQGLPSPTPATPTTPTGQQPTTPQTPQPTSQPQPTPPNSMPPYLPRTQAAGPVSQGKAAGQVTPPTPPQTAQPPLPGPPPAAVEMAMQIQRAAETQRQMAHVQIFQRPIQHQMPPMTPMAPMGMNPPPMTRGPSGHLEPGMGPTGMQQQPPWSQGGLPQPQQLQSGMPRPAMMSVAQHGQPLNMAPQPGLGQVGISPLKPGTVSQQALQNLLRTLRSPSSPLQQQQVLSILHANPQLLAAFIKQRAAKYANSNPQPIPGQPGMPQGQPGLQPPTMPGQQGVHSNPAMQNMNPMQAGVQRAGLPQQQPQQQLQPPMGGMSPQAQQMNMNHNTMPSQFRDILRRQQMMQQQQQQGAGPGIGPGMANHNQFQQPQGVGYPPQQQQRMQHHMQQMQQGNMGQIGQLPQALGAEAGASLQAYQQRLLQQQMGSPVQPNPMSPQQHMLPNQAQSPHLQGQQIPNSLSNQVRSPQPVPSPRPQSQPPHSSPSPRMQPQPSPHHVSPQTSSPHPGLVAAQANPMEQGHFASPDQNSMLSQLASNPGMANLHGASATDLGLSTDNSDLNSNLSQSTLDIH", "assay": "Immunoblotting of P300 protein levels in LNCaP or 22RV1 cells", "type": "cell-based", "set-up": "LNCaP or 22RV1 cells that express CBP/P300 proteins were treated with GNE-781 or the bivalent compounds; endogenous in cells; host or cells: LNCaP (clone FGC) or 22RV1 cells", "settings": "percentage of inhibition of p300 at 10 nM (Table 3); read-out: Degradation (10 nM)", "in_short": "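P300/CBP levels quantified by chemiluminescent immunoblot band densitometry, normalized against tubulin or vinculin loading controls. Lysates came from LNCaP or 22RV1 cells exposed to compounds or DMSO vehicle for indicated times.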"}, "LNCaP cells": {"tested_on": "LNCaP cells", "assay": "LNCaP cell viability assay (CellTiter-Glo)", "type": "cell-based", "settings": "Homo sapiens, 72 h; LNCaP prostate cancer cell viability inhibition, 3 days, CellTiter-Glo (Table 3)", "in_short": "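Three-day treatment of LNCaP cells (5000 per well) across a 12-point, 3-fold dilution series starting at 10 μM. ATP luminescence (CellTiter-Glo) relative to untreated controls gave dose-response curves fitted nonlinearly for IC50.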"}}}
{"compound": "CNC(=O)N1CCc2c(c(N3CCCc4cc(-c5cnn(C)c5)c(C(F)F)cc43)nn2C2CCN(C(=O)COCCOCCOCCOCCOCC(=O)N[C@H](C(=O)N3C[C@H](O)C[C@H]3C(=O)NCc3ccc(-c4scnc4C)cc3)C(C)(C)C)CC2)C1", "note": "[P-071, 3-(7-(Difluoromethyl)-6-(1-methyl-1H-pyrazol-4-yl)-3,4-dihydroquinolin-1(2H)-yl)-1-(1-((S)-19-((2S,4R)-4-hydroxy-2-((4-(4-methylthiazol-5-yl)benzyl)carbamoyl)pyrrolidine-1-carbonyl)-20,20-dimethyl-17-oxo-3,6,9,12,15-pentaoxa-18-azahenicosanoyl)piperidin-4-yl)-N-methyl-1,4,6,7-tetrahydro-5H-pyrazolo[4,3-c]pyridine-5-carboxamide]", "values": [{"measurement": "inhibition at 0.01 µM", "setting": "P300", "value": "20 to 50", "unit": "%"}, {"measurement": "IC50", "setting": "LNCaP cells", "value": 107, "unit": "nM"}]}
{"compound": "CNC(=O)N1CCc2c(c(N3CCCc4cc(-c5cnn(C)c5)c(C(F)F)cc43)nn2C2CCN(C(=O)CCOCCOCCOCCOCCOCCC(=O)N[C@H](C(=O)N3C[C@H](O)C[C@H]3C(=O)NCc3ccc(-c4scnc4C)cc3)C(C)(C)C)CC2)C1", "note": "[P-072, 3-(7-(Difluoromethyl)-6-(1-methyl-1H-pyrazol-4-yl)-3,4-dihydroquinolin-1(2H)-yl)-1-(1-((S)-21-((2S,4R)-4-hydroxy-2-((4-(4-methylthiazol-5-yl)benzyl)carbamoyl)pyrrolidine-1-carbonyl)-22,22-dimethyl-19-oxo-4,7,10,13,16-pentaoxa-20-azatricosanoyl)piperidin-4-yl)-N-methyl-1,4,6,7-tetrahydro-5H-pyrazolo[4,3-c]pyridine-5-carboxamide]", "values": [{"measurement": "inhibition at 0.01 µM", "setting": "P300", "value": "< 20", "unit": "%"}, {"measurement": "IC50", "setting": "LNCaP cells", "value": 60.7, "unit": "nM"}]}
{"compound": "CNC(=O)N1CCc2c(c(N3CCCc4cc(-c5cnn(CC(=O)NCCOCC(=O)N[C@H](C(=O)N6C[C@H](O)C[C@H]6C(=O)NCc6ccc(-c7scnc7C)cc6)C(C)(C)C)c5)c(C(F)F)cc43)nn2C2CCOCC2)C1", "note": "[P-073, 3-(7-(Difluoromethyl)-6-(1-(2-((2-(2-(((S)-1-((2S,4R)-4-hydroxy-2-((4-(4-methylthiazol-5-yl)benzyl)carbamoyl)pyrrolidin-1-yl)-3,3-dimethyl-1-oxobutan-2-yl)amino)-2-oxoethoxy)ethyl)amino)-2-oxoethyl)-1H-pyrazol-4-yl)-3,4-dihydroquinolin-1(2H)-yl)-N-methyl-1-(tetrahydro-2H-pyran-4-yl)-1,4,6,7-tetrahydro-5H-pyrazolo[4,3-c]pyridine-5-carboxamide]", "values": [{"measurement": "inhibition at 0.01 µM", "setting": "P300", "value": "< 20", "unit": "%"}, {"measurement": "IC50", "setting": "LNCaP cells", "value": "> 10000", "unit": "nM"}]}
{"compound": "CNC(=O)N1CCc2c(c(N3CCCc4cc(-c5cnn(CC(=O)NCCOCCOCCC(=O)N[C@H](C(=O)N6C[C@H](O)C[C@H]6C(=O)NCc6ccc(-c7scnc7C)cc6)C(C)(C)C)c5)c(C(F)F)cc43)nn2C2CCOCC2)C1", "note": "[P-075, 3-(7-(Difluoromethyl)-6-(1-((S)-14-((2S,4R)-4-hydroxy-2-((4-(4-methylthiazol-5-yl)benzyl)carbamoyl)pyrrolidine-1-carbonyl)-15,15-dimethyl-2,12-dioxo-6,9-dioxa-3,13-diazahexadecyl)-1H-pyrazol-4-yl)-3,4-dihydroquinolin-1(2H)-yl)-N-methyl-1-(tetrahydro-2H-pyran-4-yl)-1,4,6,7-tetrahydro-5H-pyrazolo[4,3-c]pyridine-5-carboxamide]", "values": [{"measurement": "inhibition at 0.01 µM", "setting": "P300", "value": "< 20", "unit": "%"}, {"measurement": "IC50", "setting": "LNCaP cells", "value": "> 10000", "unit": "nM"}]}
{"compound": "CNC(=O)N1CCc2c(c(N3CCCc4cc(-c5cnn(CC(=O)NCCOCCOCCOCC(=O)N[C@H](C(=O)N6C[C@H](O)C[C@H]6C(=O)NCc6ccc(-c7scnc7C)cc6)C(C)(C)C)c5)c(C(F)F)cc43)nn2C2CCOCC2)C1", "note": "[P-076, 3-(7-(Difluoromethyl)-6-(1-((S)-16-((2S,4R)-4-hydroxy-2-((4-(4-methylthiazol-5-yl)benzyl)carbamoyl)pyrrolidine-1-carbonyl)-17,17-dimethyl-2,14-dioxo-6,9,12-trioxa-3,15-diazaoctadecyl)-1H-pyrazol-4-yl)-3,4-dihydroquinolin-1(2H)-yl)-N-methyl-1-(tetrahydro-2H-pyran-4-yl)-1,4,6,7-tetrahydro-5H-pyrazolo[4,3-c]pyridine-5-carboxamide]", "values": [{"measurement": "inhibition at 0.01 µM", "setting": "P300", "value": "< 20", "unit": "%"}, {"measurement": "IC50", "setting": "LNCaP cells", "value": "> 10000", "unit": "nM"}]}
{"compound": "CNC(=O)N1CCc2c(c(N3CCCc4cc(-c5cnn(CC(=O)NCCOCCOCCOCCC(=O)N[C@H](C(=O)N6C[C@H](O)C[C@H]6C(=O)NCc6ccc(-c7scnc7C)cc6)C(C)(C)C)c5)c(C(F)F)cc43)nn2C2CCOCC2)C1", "note": "[P-077, 3-(7-(Difluoromethyl)-6-(1-((S)-17-((2S,4R)-4-hydroxy-2-((4-(4-methylthiazol-5-yl)benzyl)carbamoyl)pyrrolidine-1-carbonyl)-18,18-dimethyl-2,15-dioxo-6,9,12-trioxa-3,16-diazanonadecyl)-1H-pyrazol-4-yl)-3,4-dihydroquinolin-1(2H)-yl)-N-methyl-1-(tetrahydro-2H-pyran-4-yl)-1,4,6,7-tetrahydro-5H-pyrazolo[4,3-c]pyridine-5-carboxamide]", "values": [{"measurement": "inhibition at 0.01 µM", "setting": "P300", "value": "< 20", "unit": "%"}, {"measurement": "IC50", "setting": "LNCaP cells", "value": "> 10000", "unit": "nM"}]}
{"compound": "CNC(=O)N1CCc2c(c(N3CCCc4cc(-c5cnn(CC(=O)NCCOCCOCCOCCOCCC(=O)N[C@H](C(=O)N6C[C@H](O)C[C@H]6C(=O)NCc6ccc(-c7scnc7C)cc6)C(C)(C)C)c5)c(C(F)F)cc43)nn2C2CCOCC2)C1", "note": "[P-078, 3-(7-(Difluoromethyl)-6-(1-((S)-20-((2S,4R)-4-hydroxy-2-((4-(4-methylthiazol-5-yl)benzyl)carbamoyl)pyrrolidine-1-carbonyl)-21,21-dimethyl-2,18-dioxo-6,9,12,15-tetraoxa-3,19-diazadocosyl)-1H-pyrazol-4-yl)-3,4-dihydroquinolin-1(2H)-yl)-N-methyl-1-(tetrahydro-2H-pyran-4-yl)-1,4,6,7-tetrahydro-5H-pyrazolo[4,3-c]pyridine-5-carboxamide]", "values": [{"measurement": "inhibition at 0.01 µM", "setting": "P300", "value": "< 20", "unit": "%"}, {"measurement": "IC50", "setting": "LNCaP cells", "value": "> 10000", "unit": "nM"}]}
{"compound": "CNC(=O)N1CCc2c(c(N3CCCc4cc(-c5cnn(CC(=O)NCCCC(=O)N[C@H](C(=O)N6C[C@H](O)C[C@H]6C(=O)NCc6ccc(-c7scnc7C)cc6)C(C)(C)C)c5)c(C(F)F)cc43)nn2C2CCOCC2)C1", "note": "[P-079, 3-(7-(Difluoromethyl)-6-(1-(2-((4-(((S)-1-((2S,4R)-4-hydroxy-2-((4-(4-methylthiazol-5-yl)benzyl)carbamoyl)pyrrolidin-1-yl)-3,3-dimethyl-1-oxobutan-2-yl)amino)-4-oxobutyl)amino)-2-oxoethyl)-1H-pyrazol-4-yl)-3,4-dihydroquinolin-1(2H)-yl)-N-methyl-1-(tetrahydro-2H-pyran-4-yl)-1,4,6,7-tetrahydro-5H-pyrazolo[4,3-c]pyridine-5-carboxamide]", "values": [{"measurement": "inhibition at 0.01 µM", "setting": "P300", "value": "< 20", "unit": "%"}, {"measurement": "IC50", "setting": "LNCaP cells", "value": "> 10000", "unit": "nM"}]}
{"compound": "CNC(=O)N1CCc2c(c(N3CCCc4cc(-c5cnn(CC(=O)NCCCCCCC(=O)N[C@H](C(=O)N6C[C@H](O)C[C@H]6C(=O)NCc6ccc(-c7scnc7C)cc6)C(C)(C)C)c5)c(C(F)F)cc43)nn2C2CCOCC2)C1", "note": "[P-080, 3-(7-(Difluoromethyl)-6-(1-(2-((7-(((S)-1-((2S,4R)-4-hydroxy-2-((4-(4-methylthiazol-5-yl)benzyl)carbamoyl)pyrrolidin-1-yl)-3,3-dimethyl-1-oxobutan-2-yl)amino)-7-oxoheptyl)amino)-2-oxoethyl)-1H-pyrazol-4-yl)-3,4-dihydroquinolin-1(2H)-yl)-N-methyl-1-(tetrahydro-2H-pyran-4-yl)-1,4,6,7-tetrahydro-5H-pyrazolo[4,3-c]pyridine-5-carboxamide]", "values": [{"measurement": "inhibition at 0.01 µM", "setting": "P300", "value": "< 20", "unit": "%"}, {"measurement": "IC50", "setting": "LNCaP cells", "value": "> 10000", "unit": "nM"}]}
{"compound": "CNC(=O)N1CCc2c(c(N3CCCc4cc(-c5cnn(CC(=O)NCCCCCCCCC(=O)N[C@H](C(=O)N6C[C@H](O)C[C@H]6C(=O)NCc6ccc(-c7scnc7C)cc6)C(C)(C)C)c5)c(C(F)F)cc43)nn2C2CCOCC2)C1", "note": "[P-081, 3-(7-(Difluoromethyl)-6-(1-(2-((9-(((S)-1-((2S,4R)-4-hydroxy-2-((4-(4-methylthiazol-5-yl)benzyl)carbamoyl)pyrrolidin-1-yl)-3,3-dimethyl-1-oxobutan-2-yl)amino)-9-oxononyl)amino)-2-oxoethyl)-1H-pyrazol-4-yl)-3,4-dihydroquinolin-1(2H)-yl)-N-methyl-1-(tetrahydro-2H-pyran-4-yl)-1,4,6,7-tetrahydro-5H-pyrazolo[4,3-c]pyridine-5-carboxamide]", "values": [{"measurement": "inhibition at 0.01 µM", "setting": "P300", "value": "< 20", "unit": "%"}, {"measurement": "IC50", "setting": "LNCaP cells", "value": 469, "unit": "nM"}]}
{"compound": "CNC(=O)N1CCc2c(c(N3CCCc4cc(-c5cnn(C)c5)c(C(F)F)cc43)nn2C2CCN(C(=O)CCCCCOc3cccc4c3C(=O)N(C3CCC(=O)NC3=O)C4=O)CC2)C1", "note": "(stereo not drawn) [P-084, 3-(7-(Difluoromethyl)-6-(1-methyl-1H-pyrazol-4-yl)-3,4-dihydroquinolin-1(2H)-yl)-1-(1-(6-((2-(2,6-dioxopiperidin-3-yl)-1,3-dioxoisoindolin-4-yl)oxy)hexanoyl)piperidin-4-yl)-N-methyl-1,4,6,7-tetrahydro-5H-pyrazolo[4,3-c]pyridine-5-carboxamide]", "values": [{"measurement": "inhibition at 0.01 µM", "setting": "P300", "value": "50 to 80", "unit": "%"}, {"measurement": "IC50", "setting": "LNCaP cells", "value": 13.1, "unit": "nM"}]}
{"compound": "CNC(=O)N1CCc2c(c(N3CCCc4cc(-c5cnn(C)c5)c(C(F)F)cc43)nn2C2CCN(C(=O)CCCCCCc3cccc4c3C(=O)N(C3CCC(=O)NC3=O)C4=O)CC2)C1", "note": "(stereo not drawn) [P-085, 3-(7-(difluoromethyl)-6-(1-methyl-1H-pyrazol-4-yl)-3,4-dihydroquinolin-1(2H)-yl)-1-(1-(7-(2-(2,6-dioxopiperidin-3-yl)-1,3-dioxoisoindolin-4-yl)heptanoyl)piperidin-4-yl)-N-methyl-1,4,6,7-tetrahydro-5H-pyrazolo[4,3-c]pyridine-5-carboxamide]", "values": [{"measurement": "inhibition at 0.01 µM", "setting": "P300", "value": "> 80", "unit": "%"}, {"measurement": "IC50", "setting": "LNCaP cells", "value": 3.8, "unit": "nM"}]}
